Assay results as given in ChEMBL document CHEMBL1268982, “Design, synthesis, and structure-activity relationship studies of N-arylsulfonyl morpholines as γ-secretase inhibitors” (Bioorg Med Chem Lett, 2010).

Assays:
[1] = AUC (0 to 6 hrs) in rat at 10 mg/kg, po; format: ADME, organism-based; design: time < 6 hr, dose 10 mg/kg, route oral; conditions: plasma
[2] = biological target: Cytochrome P450 3A4 (Homo sapiens, UniProt P08684); assay: Inhibition of CYP3A4 after 30 mins; format: ADME
[3] = Inhibition of gamma-secretase-mediated amyloid beta-40 production

Chain of Cytochrome P450 3A4 (P08684 whole entry): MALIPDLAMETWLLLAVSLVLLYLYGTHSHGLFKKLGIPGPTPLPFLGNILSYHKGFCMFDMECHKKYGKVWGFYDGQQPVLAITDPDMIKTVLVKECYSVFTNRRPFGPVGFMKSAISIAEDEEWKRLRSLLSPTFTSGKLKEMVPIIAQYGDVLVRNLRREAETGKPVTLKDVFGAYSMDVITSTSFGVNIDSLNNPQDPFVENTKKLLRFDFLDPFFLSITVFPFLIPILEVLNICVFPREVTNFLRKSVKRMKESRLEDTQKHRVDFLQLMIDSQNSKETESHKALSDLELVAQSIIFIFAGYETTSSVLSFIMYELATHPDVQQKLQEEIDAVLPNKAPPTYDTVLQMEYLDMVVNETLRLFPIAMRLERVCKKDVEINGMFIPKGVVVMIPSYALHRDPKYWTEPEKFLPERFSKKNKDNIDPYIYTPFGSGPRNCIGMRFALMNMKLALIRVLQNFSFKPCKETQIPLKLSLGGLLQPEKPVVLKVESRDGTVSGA

| SMILES | AUC(0-t) at 6 h [1] [µM·h] | IC50 [2] [nM] | IC50 [3] [nM] |
| --- | --- | --- | --- |
| CC(C)[C@@H]1COC[C@H](C2(OC(=O)N3CC4CCC(C3)N4)CC2)N1S(=O)(=O)c1ccc(Cl)cc1 | 4.97 | 500 | 2 |
| CC(C)[C@@H]1COC[C@H](C2(OC(=O)N3CC[C@@H](O)C3)CC2)N1S(=O)(=O)c1ccc(Cl)cc1 | 0.036 | 13600 | 18.9 |
| CC(C)[C@@H]1COC[C@H](C2(OC(=O)N3CCC(CO)CC3)CC2)N1S(=O)(=O)c1ccc(Cl)cc1 |  | 13800 | 6.5 |
| CC(C)[C@@H]1COC[C@H](C2(OC(=O)N3CC[C@H](O)C3)CC2)N1S(=O)(=O)c1ccc(Cl)cc1 |  | 30000 | 17 |
| CC(C)[C@@H]1COC[C@H](C2(OC(=O)N3CC4CNCC4C3)CC2)N1S(=O)(=O)c1ccc(Cl)cc1 (stereo partly specified) | 1.12 | 6400 | 9.3 |
| CC(C)[C@@H]1COC[C@H](C2(OC(=O)N3CCNCC3)CC2)N1S(=O)(=O)c1ccc(Cl)cc1 | 3.93 | 300 | 14.5 |
| CC(C)(C)[C@@H]1COC[C@H](COC(=O)N2CCN(C(C)(C)CO)CC2)N1S(=O)(=O)c1ccc(Cl)cc1 |  | 23800 | 34.7 |
| CC(C)(C)[C@@H]1COC[C@H](COC(=O)N2CCC(CO)CC2)N1S(=O)(=O)c1ccc(Cl)cc1 |  | 7100 | 108 |
| CC1([C@@H]2COC[C@H](COC(=O)N3CCC(CO)CC3)N2S(=O)(=O)c2ccc(Cl)cc2)CC1 |  | 5500 | 131 |
| CC1([C@@H]2COC[C@H](COC(=O)N3CCC(N4CCCCC4)CC3)N2S(=O)(=O)c2ccc(Cl)cc2)CC1 |  | 1500 | 20.4 |
| CC1([C@@H]2COC[C@H](COC(=O)N3CCN(C(C)(C)CO)CC3)N2S(=O)(=O)c2ccc(Cl)cc2)CC1 |  | 500 | 39.3 |
| O=C(OC1([C@H]2COC[C@@H](CC3CC3)N2S(=O)(=O)c2ccc(Cl)cc2)CC1)N1CC2CCC(C1)N2 | 4.58 | 800 | 0.8 |
| O=C(OC1([C@H]2COC[C@@H](CC3CC3)N2S(=O)(=O)c2ccc(Cl)cc2)CC1)N1CC2CCC(C1)N2CCO | 1.28 | 2300 | 0.9 |
| CC(=O)N1C2CCC1CN(C(=O)OC1([C@H]3COC[C@@H](CC4CC4)N3S(=O)(=O)c3ccc(Cl)cc3)CC1)C2 | 0.013 | > 30000 | 4.4 |
| CCNC(=O)N1C2CCC1CN(C(=O)OC1([C@H]3COC[C@@H](CC4CC4)N3S(=O)(=O)c3ccc(Cl)cc3)CC1)C2 | 0.06 | > 30000 | 5.5 |
| O=C(OC1([C@H]2COC[C@@H](CC3CC3)N2S(=O)(=O)c2ccc(Cl)cc2)CC1)N1CC2CC1CN2CCO (stereo partly specified) | 1.35 | 3200 | 3.6 |
| C[C@@H]1CN(C(=O)OC2([C@H]3COC[C@@H](CC4CC4)N3S(=O)(=O)c3ccc(Cl)cc3)CC2)C[C@H](C)N1CCO | 1.23 | 2000 | 11.6 |
| CN1CCN(C(=O)OC2([C@H]3COC[C@@H](CC4CC4)N3S(=O)(=O)c3ccc(Cl)cc3)CC2)CC1=O | 1.02 | 1400 | 5.7 |
| CC[C@H]1CN(C(C)=O)[C@H](C)CN1C(=O)OC1([C@H]2COC[C@@H](CC3CC3)N2S(=O)(=O)c2ccc(Cl)cc2)CC1 |  | > 30000 | 29.3 |
| CC(C)(CO)N1CCN(C(=O)OC2([C@H]3COC[C@@H](CC4CC4)N3S(=O)(=O)c3ccc(Cl)cc3)CC2)CC1 | 0.077 | > 30000 | 27.6 |
| O=C(OC1([C@H]2COC[C@@H](CC3CC3)N2S(=O)(=O)c2ccc(Cl)cc2)CC1)N1CCC2(CCN2)CC1 | 1.34 | 11300 | 3.1 |
| CN1CCC12CCN(C(=O)OC1([C@H]3COC[C@@H](CC4CC4)N3S(=O)(=O)c3ccc(Cl)cc3)CC1)CC2 | 0.894 | 30000 | 2.6 |
| O=C1CC2(CCN(C(=O)OC3([C@H]4COC[C@@H](CC5CC5)N4S(=O)(=O)c4ccc(Cl)cc4)CC3)CC2)N1 | 0.037 | > 30000 | 7.4 |
